Test results as given in US9133158B2, “Bicyclic dihydroisoquinoline-1-one derivatives” (Hoffmann-La Roche Inc., priority 2011, dated 2015).

Columns and labels:
human CYP11B2 = target: T1, human CYP11B2 (Homo sapiens, UniProt P19099); experiment: G-402 cellular enzyme assay, human CYP11B2 (aldosterone release, HTRF); assay type: cell-based; settings: G-402 cells, 1 μM Deoxycorticosterone
T1 construct: expressed in transfected cells
T1 sequence (P19099 25-503): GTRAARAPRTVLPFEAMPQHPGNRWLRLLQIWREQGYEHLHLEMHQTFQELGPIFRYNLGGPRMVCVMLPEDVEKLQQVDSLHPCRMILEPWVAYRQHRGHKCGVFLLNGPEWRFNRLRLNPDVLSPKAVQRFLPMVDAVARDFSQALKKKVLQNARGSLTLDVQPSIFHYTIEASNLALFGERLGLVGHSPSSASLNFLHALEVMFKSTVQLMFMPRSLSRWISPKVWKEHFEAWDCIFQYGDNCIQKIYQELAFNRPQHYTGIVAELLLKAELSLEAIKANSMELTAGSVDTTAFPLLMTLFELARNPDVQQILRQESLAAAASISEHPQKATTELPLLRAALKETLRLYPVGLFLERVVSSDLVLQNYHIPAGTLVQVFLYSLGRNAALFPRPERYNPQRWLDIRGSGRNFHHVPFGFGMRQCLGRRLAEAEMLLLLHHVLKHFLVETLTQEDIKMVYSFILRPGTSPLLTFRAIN
How it was run: (§1)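 Cellular format in stably transfected G-402 cells over 16 h. HTRF quantified aldosterone (CYP11B2, 1 μM deoxycorticosterone substrate) or cortisol (CYP11B1, 1 μM deoxycortisol substrate); EC50 obtained by fitting a 4-parameter sigmoid to dose–response data.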

human CYP11B1 = target: T2, human CYP11B1 (Homo sapiens, UniProt P15538); experiment: G-402 cellular enzyme assay, human CYP11B1 (cortisol release, HTRF); assay type: cell-based; settings: G-402 cells, 1 μM Deoxycortisol
T2 construct: expressed in transfected cells
T2 sequence (P15538 25-503): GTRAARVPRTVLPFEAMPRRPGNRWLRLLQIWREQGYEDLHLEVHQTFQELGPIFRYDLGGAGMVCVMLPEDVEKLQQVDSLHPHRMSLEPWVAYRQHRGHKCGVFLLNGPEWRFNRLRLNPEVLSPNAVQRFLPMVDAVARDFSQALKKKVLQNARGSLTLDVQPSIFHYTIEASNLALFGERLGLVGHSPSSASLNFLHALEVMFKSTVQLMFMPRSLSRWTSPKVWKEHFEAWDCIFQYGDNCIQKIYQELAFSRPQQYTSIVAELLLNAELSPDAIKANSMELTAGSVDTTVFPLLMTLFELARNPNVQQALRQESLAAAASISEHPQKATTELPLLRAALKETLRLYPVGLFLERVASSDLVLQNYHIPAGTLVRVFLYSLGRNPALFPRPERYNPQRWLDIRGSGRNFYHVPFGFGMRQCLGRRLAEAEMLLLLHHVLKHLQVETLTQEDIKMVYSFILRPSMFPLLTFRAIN
How it was run: as §1

[1] = rat; FAD286 after 4 weeks, spironolactone at 4 and 8 weeks of treatment; cited from earlier work
CYP11B2 = CYP11B2 (Homo sapiens, UniProt P19099); settings: patients with primary aldosteronism, oral; cited from earlier work

| Structure (SMILES) | EC50 (human CYP11B2) [nM] | EC50 (human CYP11B1) [nM] | plasma aldosterone [1] | circulating aldosterone levels (CYP11B2) |
| --- | --- | --- | --- | --- |
| CC(=O)N1CCCC(c2cncc(N3C(=O)c4ccc(Cl)cc4C3(C)C)n2)C1 (centres unmarked) [Example 462, 2-[6-(1-Acetyl-piperidin-3-yl)-pyrazin-2-yl]-5-chloro-3,3-dimethyl-2,3-dihydro-isoindol-1-one] | 32.6 | 720 |  |  |
| CCC(=O)N1CCCC(c2cncc(N3C(=O)c4ccc(Cl)cc4C3(C)C)n2)C1 (centres unmarked) [Example 463, 5-Chloro-3,3-dimethyl-2-[6-(1-propionyl-piperidin-3-yl)-pyrazin-2-yl]-2,3-dihydro-isoindol-1-one] | 47.1 | 932 |  |  |
| CC1(C)c2cc(Cl)ccc2C(=O)N1c1cncc(C2CCCN(S(C)(=O)=O)C2)n1 (centres unmarked) [Example 465, 5-Chloro-2-[6-(1-methanesulfonyl-piperidin-3-yl)-pyrazin-2-yl]-3,3-dimethyl-2,3-dihydro-isoindol-1-one] | 66.9 | 2270 |  |  |
| N#Cc1ccc([C@H]2CCCc3cncn32)cc1 [FAD286] |  |  | reduced |  |
| N#Cc1ccc([C@H]2CCc3cncn32)c(F)c1 [LCI699] |  |  |  | significantly lower |
| CC(=O)S[C@@H]1CC2=CC(=O)CC[C@]2(C)[C@H]2CC[C@@]3(C)[C@@H](CC[C@@]34CCC(=O)O4)[C@H]12 [spironolactone] |  |  | increased |  |

Continued by falling EC50 (human CYP11B2), values first:

| EC50 (human CYP11B2) [nM] | EC50 (human CYP11B1) [nM] | Structure (SMILES) | plasma aldosterone [1] | circulating aldosterone levels (CYP11B2) |
| --- | --- | --- | --- | --- |
| 12.3 | 516 | CC(=O)N1CCC(c2cncc(N3C(=O)c4ccc(Cl)cc4C3(C)C)c2)C1 (centres unmarked) [Example 460, 2-[5-(1-Acetyl-pyrrolidin-3-yl)-pyridin-3-yl]-5-chloro-3,3-dimethyl-2,3-dihydro-isoindol-1-one] |  |  |
| 5.6 | 594 | CC1(C)c2cc(Cl)ccc2C(=O)N1c1cncc(N2CCN(C(=O)c3ncccc3Cl)CC2)c1 [Example 459, 5-Chloro-2-{5-[4-(3-chloro-pyridine-2-carbonyl)-piperazin-1-yl]-pyridin-3-yl}-3,3-dimethyl-2,3-dihydro-isoindol-1-one] |  |  |
| 4 | 361 | CC(=O)N1CCC(c2cncc(N3C(=O)c4ccc(Cl)cc4C3(C)C)c2)CC1 [Example 461, 2-(1′-Acetyl-1′,2′,3′,4′,5′,6′-hexahydro-[3,4′]bipyridinyl-5-yl)-5-chloro-3,3-dimethyl-2,3-dihydro-isoindol-1-one] |  |  |
| 2.8 | 1650 | CCS(=O)(=O)N1CCCC(c2cncc(N3C(=O)c4ccc(Cl)cc4C3(C)C)n2)C1 (centres unmarked) [Example 464, 5-Chloro-2-[6-(1-ethanesulfonyl-piperidin-3-yl)-pyrazin-2-yl]-3,3-dimethyl-2,3-dihydro-isoindol-1-one] |  |  |
